Like-named read-outs stand apart in the source and are kept apart here.
Assays:
[1] = system: Bacillus subtillis IAM 1249; test: minimum growth-inhibiting concentration (MIC) of AF, influence of heat treatment (Table A); type: cell-based
Description: (§1) As described in the first process, 1,5-D-anhydrofructose is an antibacterial substance having a high safety, but the present inventors have found to obtain the following advantages when 1,5-D-anhydrofructose is previously subjected to a heat treatment. That is, an antibacterial power of 1,5-D-anhydrofructose can be further increased, and the antibacterial power is developed at a low concentration of 1,5-D-anhydrofructose, as compared with a case where 1,5-D-anhydrofructose is not subjected to the heat treatment. Consequently, a food containing 1,5-D-anhydrofructose is difficult to putrefy and at the same time, the antibacterial spectrum becomes wider.

[2] = system: Escherichia coli NRIC 1023; test: as above; type: cell-based
Description: as §1

[3] = system: Salmonella typhimurium IFO 12529; test: as above; type: cell-based
Description: as §1

[4] = system: Staphylococcus aureus FDA 209P; test: as above; type: cell-based
Description: as §1

[5] = system: Streptococcus lactis IAM 1249; test: as above; type: cell-based
Description: as §1

[6] = system: Pseudomonas aeruginosa IFO 12680; test: number of bacteria killed by heating in soybean-casein digest broth medium pH 5.5 (FIG. 1); type: cell-based; conditions: 1% 1,5-D-anhydrofructose, heating at 55° C. for ten minutes, pH 5.5 broth
Description: FIG. 1 is a curve indicating the number of Pseudomonas aeruginosa IFO 12680 killed by heating.
(§2) FIGS. 1 and 2 show curves each indicating the number of gram-negative bacteria killed in a soybean-casein digest broth medium (pH of 5.5) by heating.

[7] = system: Salmonella typhimurium IFO 12529; test: number of bacteria killed by heating in soybean-casein digest broth medium pH 5.5 (FIG. 2); type: cell-based; conditions: 1% 1,5-D-anhydrofructose, heated at 60° C. for 10 minutes, pH 5.5 broth
Description: FIG. 2 is a curve indicating the number of which Salmonella typhimurium IFO 12529 killed by heating.
as §2

[8] = system: Bacillus subtillis IAM 1249; test: Test Example 1 antibacterial power test using turbidimetry (Table 12); type: cell-based; conditions: for OD^660 (turbidity): shake culture 37° C., 72 hours
Experimental: AF was subjected to an antibacterial power test using a turbidimetry. More specifically, a soybean-casein digest broth medium (having a pH value of 5.5) previously sterilized and 1% of AF were placed into a test tube and heated under heating conditions shown in Table 12. Then, 8.7×10^4 CFU of Bacillus subtillis IAM 1249 was inoculated into the test tube, shake culture was carried out at 37° C. for 72 hours, and the turbidity (OD, 660 nm) was then measured.

[9] = system: Bacillus subtillis IAM 1249; test: Test Example 2 number of living bacteria in noodle soup preserved at 30° C. (FIG. 3)
Experimental: FIG. 3 is a graph showing the number of Bacillus. subtillis IAM 1249 living in a noodle soup under preservation.
(§3) This will be described in detail later in Test Example 2.
(§4) 40 Grams of a powdery soup stock (produced by Yamaki, Co.) and 200 ml of commercially available soy sauce were added to 1,000 ml of water to prepare a noodle soup. Bacteria were inoculated into the noodle soup, and the noodle soup was preserved at 30° C., and then, the number of living bacteria was counted. FIG. 3 is a curve showing the number of living Bacillus subtillis IAM 1249 (which will be simply referred to as B. subtillis hereinafter), and FIG. 4 is a curve showing the number of living Escherichia coli NRIC 1023 (which will be simply referred to as E. coli hereinafter). In FIGS. 3 and 4, A-1 and A′-1 are curves each indicating the number of living B. subtillis or E. colli inoculated into the unsterilized noodle soup. In the cases of A-1 and A′-1,1,5-D-anhydrofructose was not added, and P and P′ indicate the number of bacteria initially generated.
(§5) A-2 and A′-2 are curves each indicating the number of living B. subtillis or E. colli inoculated into the noodle soup sterilized by heating in hot water at […]. for 10 minutes. In the cases of A-2 and A′-2,1,5-D-anhydrofructose was not added, and the numbers of bacteria initially generated are indicated by Q and Q′, respectively. […]

[10] = system: Escherichia coli NRIC 1023; test: Test Example 2 number of living bacteria in noodle soup preserved at 30° C. (FIG. 4)
Experimental: FIG. 4 is a graph showing the number of Escherichia coli NRIC 1023 living in a noodle soup under preservation.
as §3, §4, §5

Lactobacillus casei = test: Test Example 3 swelling of noodle soup sacks preserved at 30° C. (Table 13); conditions: 2% of AF
Experimental: 40 Grams of a powdery soup stock (produced by […], Co.), 200 ml of commercially available soy sauce and 2% of AF were added to 1000 ml of water. The mixture was aseptically filtered and charged in an amount of 100 ml into each of ten polypropylene sacks previously sterilized. Meanwhile, 1 ml of the noodle soup (containing a number of living bacteria of 3.1×10^6/ml) deteriorated due to “swelling” caused by Lactobacillus casei was charged into each of the above-prepared ten sacks, which were then sealed so as air not to be left therein. The ten sacks were divided into two groups each consisting of five sacks. One of the groups was not heated, and the other group was heated in a hot water at 55° C. for 10 minutes. Then, both of them were preserved at 30° C., and the occurrence of “swelling” was observed.

Bacillus subtillis = test: Example 11 curry preservability, sensory evaluation test (Table 14); conditions: curry with AF
Experimental: 7 Parts of beef, 57 parts of vegetables (12 parts of potato, 40 parts of onion and 5 parts of carrot), 1 part of a curry powder, 6 parts of fatty oil, 0.2 parts of sodium glutamate, 1 part of starch and 40 parts of a soup were mixed together, and the mixture was heated and cooked at 80° C. for 1 hour. The resulting product was a curry containing a somewhat larger amount of soup and having a low viscosity. The following operations were conducted in a clean bench. The curry was subdivided each in an amount of 95 grams into ten plugged vessels previously sterilized. The ten vessels were divided into two groups each consisting of five vessels. A 30% solution of AF subjected to an aseptic filtration was added in an amount of 5 g into each of the vessels in one of the groups. Then, 2×10 ^5 nutritious cells of Bacillus subtillis incubated previously were inoculated into the group, and was mixed uniformly. Five grams of a 30% solution of AF subjected to an aseptic filtration was added into each of the vessels in the other group. Then, 2×10^5 nutritious cells of Bacillus subtillis incubated previously were inoculated into the group, and after mixing uniformly, heated at 60° C. for 10 minutes and then cooled rapidly. Both of the groups were preserved at […], and the preservability of them was compared by a sensory evaluation test.

many bacteria = conditions: against many bacteria; 'has been recognized'; cited from earlier work
[11] = noodle soup, heating at 550° C. for 10 minutes after addition of 1,5-D-anhydrofructose vs heating without it

Compound: O=C1CO[C@H](CO)[C@@H](O)[C@@H]1O [AF, 1,5-D-anhydrofructose]
- minimum growth-inhibiting concentration (MIC) ([1]; listed as non-heated AF): 3%
- minimum growth-inhibiting concentration (MIC) ([2]; listed as non-heated AF): 5%
- minimum growth-inhibiting concentration (MIC) ([3]; listed as non-heated AF): 4%
- minimum growth-inhibiting concentration (MIC) ([4]; listed as non-heated AF): 1.5%
- minimum growth-inhibiting concentration (MIC) ([5]; listed as non-heated AF): 3%
- number of bacteria remaining alive relative to the control [6]: one tenth of that in the control
- number of bacteria remaining alive relative to the control [7]: one hundredth or less of that in the control
- OD^660 (turbidity) ([8]; 1% of AF added and not heated): 0.836
- OD^660 (turbidity) ([8]; 1% of AF, heated at 55° C. for 10 minutes): 0.513
- OD^660 (turbidity) ([8]; 1% of AF, heated at 60° C. for 10 minutes): 0.437
- OD^660 (turbidity) ([8]; 1% of AF, heated at 80° C. for 10 minutes): 0.355
- OD^660 (turbidity) ([8]; 1% of AF, heated at 90° C. for 10 minutes): 0.338
- antibacterial power relative to the control with 1% of AF added and not heated ([8]; heated at 55° C. for 10 minutes after addition of 1% of AF, (1.160-0.513)/(1.160-0.836)): about two times
- proliferation of bacteria during preservation ([9]; noodle soup containing 1,5-D-anhydrofructose, 30° C., B-2 vs B-3): suppressed
- number of living bacteria initially generated (from Q to R) [9, 11]: reduced by about one figure
- proliferation of bacteria during preservation ([10]; noodle soup containing 1,5-D-anhydrofructose, 30° C., B′-2 vs B′-3): suppressed
- number of living bacteria initially generated (from Q′ to R′) [10, 11]: reduced by about one figure
- number of normal sacks / total number of sacks (Lactobacillus casei; heated at 55° C. for 10 minutes, 5 preservation days at 30° C.): 5/5
- number of normal sacks / total number of sacks (Lactobacillus casei; heated at 55° C. for 10 minutes, 10 preservation days at 30° C.): 3/5
- number of normal sacks / total number of sacks (Lactobacillus casei; heated at 55° C. for 10 minutes, 15 preservation days at 30° C.): 1/5
- number of normal sacks / total number of sacks (Lactobacillus casei; heated at 55° C. for 10 minutes, 20 preservation days at 30° C.): 0/5
- number of normal sacks / total number of sacks (Lactobacillus casei; not heated, 5 preservation days at 30° C.): 4/5
- number of normal sacks / total number of sacks (Lactobacillus casei; not heated, 10 preservation days at 30° C.): 0/5
- number of normal vessels / total number of vessels (Bacillus subtillis; Heated at 60° C. for 10 minutes, preservation time 12): 5/5
- number of normal vessels / total number of vessels (Bacillus subtillis; Heated at 60° C. for 10 minutes, preservation time 24): 5/5
- number of normal vessels / total number of vessels (Bacillus subtillis; Heated at 60° C. for 10 minutes, preservation time 36): 5/5
- number of normal vessels / total number of vessels (Bacillus subtillis; Heated at 60° C. for 10 minutes, preservation time 48): 5/5
- number of normal vessels / total number of vessels (Bacillus subtillis; Heated at 60° C. for 10 minutes, preservation time 60): 0/5
- number of normal vessels / total number of vessels (Bacillus subtillis; Not heated, preservation time 12): 5/5
- number of normal vessels / total number of vessels (Bacillus subtillis; Not heated, preservation time 24): 5/5
- number of normal vessels / total number of vessels (Bacillus subtillis; Not heated, preservation time 36): 0/5
- concentration exhibiting proliferation-inhibiting effect (many bacteria): ≤ 1%

Compound: O=C1CO[C@H](CO)[C@@H](O)[C@@H]1O [heated AF, 1,5-D-anhydrofructose]
- minimum growth-inhibiting concentration (MIC) [1]: 1%
- minimum growth-inhibiting concentration (MIC) [2]: 2%
- minimum growth-inhibiting concentration (MIC) [3]: 2%
- minimum growth-inhibiting concentration (MIC) [4]: 0.5%
- minimum growth-inhibiting concentration (MIC) [5]: 1%

Source: patent US6824801B2, “Process for producing foods having good keeping qualities and food keeping agents” (Nihon Starch Co., Ltd., priority 2000, dated 2004)
